# Reference: patent publication US12188040B2, “Method for enhancing gene expression using AAV vector” (priority 2018, dated 2025)
# Several values for one entry are separate records, joined by “and”; a condition that tells them apart may be missing. Identical values can stand only once. Like-named read-outs stand apart in the source and are kept apart here.
# System: HEK293 cells
# Details: for GFP intensity: Exp 2, AAV3B 6×10^7 vg/well, iso-osmotic additives: sucrose 125.0, glucose 132.3, mannitol 132.3, NaCl 71.5 mM; for Effect of enhancement compared among the sugars: monosaccharides 100 or 200 mM; for D/L ratio of expression intensity: 132 mM
# Description: As the first procedure, 4 methods of the addition were carried out, including adding sucrose immediately (5 minutes or less) after the administration of the AAV vector, and the administration of the AAV vector immediately (5 minutes or less) after, 10 minutes after or 1 hour after adding sucrose to cells.
# In the same manner as the above-described procedure, the GFP expression level was measured 3 days later.
# In the same manner as the above-described procedures, the GFP expression level was measured 3 days later.
# AAV3B-CMV-AcGFP was mixed in advance with sucrose at each of various concentrations, and the mixture was allowed to stand at room temperature for 1 hour followed by administration to cells. […] In order to prevent cell damage due to a buffer at the time of dilution of sucrose, medium replacement was carried out using a sucrose solution having the same concentration that was prepared by the medium 3 hours after the administration.
# [1] = Exp 9, monosaccharide 100 mM, 3 days
# [2] = Exp 9, monosaccharide 100 mM, AAV3B 1×10^8 vg/well premixed 1 h, 3 days
# [3] = Exp 9, monosaccharide 200 mM, 3 days
# [4] = Exp 9, monosaccharide 200 mM, AAV3B 1×10^8 vg/well premixed 1 h, 3 days
# [5] = Exp 5, AAV3B 1×10^8 vg/well premixed 1 h, glucose 132 mM final, Day 1
# [6] = Exp 5, AAV3B 1×10^8 vg/well premixed 1 h, glucose 132 mM final, Day 2
# [7] = Exp 5, AAV3B 1×10^8 vg/well premixed 1 h, glucose 132 mM final, Day 3
# [8] = Exp 8, disaccharide 100 mM in medium, AAV3B 1×10^8 vg/well, Day 3
# [9] = Exp 8, disaccharide 100 mM, Day 3
# [10] = Exp 8, disaccharide 125 mM in medium, AAV3B 1×10^8 vg/well, Day 3
# [11] = Exp 8, disaccharide 125 mM, Day 3
# [12] = Exp 8, disaccharide 150 mM in medium, AAV3B 1×10^8 vg/well, Day 3
# [13] = Exp 8, disaccharide 150 mM, AAV3B 1×10^8 vg/well, Day 1
# [14] = Exp 8, disaccharide 150 mM, AAV3B 1×10^8 vg/well, Day 2
# [15] = Exp 8, disaccharide 150 mM, Day 3
# [16] = Exp 8, disaccharide 150 mM, AAV3B 1×10^8 vg/well, Day 6
smiles,measurement,setting,value
"[Cl-].[Na+] [NaCl, reference compound]",GFP intensity,3 days,2.5
"OC[C@@H](O)[C@@H](O)[C@H](O)[C@H](O)CO [Mannitol, mannitol, reference compound]",GFP intensity,3 days,342.8
"O=C[C@H](O)[C@@H](O)[C@@H](O)[C@H](O)CO [Galactose, galactose]",Relativeness (vs (−)),[1],1.3
same,Fluorescence Intensity,[2],189.5
same,Relativeness (vs (−)),[3],4.0 times
same,Fluorescence Intensity,[4],583.5
same,Effect of enhancement compared among the sugars,"Exp 9, 3 days",lower than those of the other sugars
"O=C[C@@H](O)[C@H](O)[C@@H](O)[C@@H](O)CO [L-Glucose, L-glucose, reference compound]",Fluorescence Intensity,[5],104.7
same,Fluorescence Intensity,[6],669.2
same,Fluorescence Intensity,[7],1397.7
same,Relativeness (vs Glucose(−)),"Exp 5, glucose 132 mM final, Day 1",11 times and 11.0 times
"O=C[C@H](O)[C@@H](O)[C@H](O)[C@H](O)CO [D-Glucose, D-glucose]",D/L ratio of expression intensity,"Exp 5, Day 1",1.5 times
same,D/L ratio of expression intensity,"Exp 5, Day 2",1.8
same,D/L ratio of expression intensity,"Exp 5, Day 3",2.1 times
same,Fluorescence Intensity,[5],161.0
same,Fluorescence Intensity,[6],1232.5
same,Fluorescence Intensity,[7],2966.3
"O=C(CO)[C@@H](O)[C@H](O)[C@H](O)CO [Fructose, fructose]",Relativeness (vs (−)),[1],2.7
same,Fluorescence Intensity,[2],402.0
same,Relativeness (vs (−)),[3],16.2 times
same,Fluorescence Intensity,[4],2378.5
same,Effect of enhancement compared among the sugars,"Exp 9, 3 days",comparable to that of sucrose
"OC[C@H]1O[C@H](O[C@H]2[C@H](O)[C@@H](O)[C@H](O)O[C@@H]2CO)[C@H](O)[C@@H](O)[C@@H]1O [Maltose, maltose]",Fluorescence Intensity,[8],1158.0
same,Relativeness (vs No Sugar),[9],1.9
same,Fluorescence Intensity,[10],1833.5
same,Relativeness (vs No Sugar),[11],3.0
same,Fluorescence Intensity,[12],3281.8
same,Fluorescence Intensity,[13],532.7
same,Fluorescence Intensity,[14],2009.0
same,Relativeness (vs No Sugar),[15],5.4
"OC[C@H]1O[C@H](O[C@H]2O[C@H](CO)[C@@H](O)[C@H](O)[C@H]2O)[C@H](O)[C@@H](O)[C@@H]1O [Trehalose, trehalose]",Fluorescence Intensity,[8],995.7
same,Relativeness (vs No Sugar),[9],1.6
same,Fluorescence Intensity,[10],1249.0
same,Relativeness (vs No Sugar),[11],2.1
same,Fluorescence Intensity,[12],1903.7
same,Fluorescence Intensity,[13],230.7
same,Fluorescence Intensity,[14],949.8
same,Fluorescence Intensity,[16],6490.7
same,Relativeness (vs No Sugar),[15],3.1
"OC[C@H]1O[C@@H](O[C@H]2[C@H](O)[C@@H](O)C(O)O[C@@H]2CO)[C@H](O)[C@@H](O)[C@H]1O (some centres unmarked) [Lactose, lactose]",Fluorescence Intensity,[8],1189.0
same,Relativeness (vs No Sugar),[9],2.0
same,Fluorescence Intensity,[10],1880.3
same,Relativeness (vs No Sugar),[11],3.1
same,Fluorescence Intensity,[12],3606.8
same,Fluorescence Intensity,[13],503.2
same,Fluorescence Intensity,[14],2097.0
same,Fluorescence Intensity,[16],10798.2
